Patent publication US20220324835A1 (Nurix Therapeutics, Inc., priority 2018, published 2022)

Tests used:
Cbl-b [1] = molecular target: T1, Cbl-b (Homo sapiens, UniProt Q13191); assay: Cbl-b inhibition assay (Cbl-b activity assay, FRET, Biological Example 1; 100 mM NaCl, 60 nM Src kinase); assay type: biochemical; settings: upper bound stated in text lists; read-out: IC50 values in the Cbl-b inhibition assay of Biological Example 1
How it was run: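 TR-FRET assay using N-terminal biotinylated Avi-tagged Cbl-b bound to streptavidin-terbium, Src kinase for Cbl-b phosphorylation, and UbcH5B irreversibly conjugated to Bodipy-Fluorescein-ubiquitin. Phosphorylated Cbl-b binds UbcH5B-Ub, bringing the fluorophores together; inhibition is read as loss of FRET signal.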

T-cell [2] = assay: IL-2 secretion from T-cells co-stimulated with anti-CD3 and anti-CD28 antibody (Biological Example 2); assay type: cell-based, human; settings: Homo sapiens, T-cell, read-out: IL-2 secretion Anti-CD3/Anti-CD28 stimulation; for fold induction at 0.3 µM: 0.3 μM Cbl-b inhibitor; for fold induction at 1 µM: 1 μM Cbl-b inhibitor
How it was run: (§1)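 No assay protocol given; T-cells stimulated with anti-CD3 alone or anti-CD3 plus anti-CD28, with or without Cbl-b inhibitor. Activation read as IL-2 secretion or CD25 surface staining, expressed as fold over baseline from uninhibited cells […].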

T-cell [3] = assay: IL-2 secretion from T-cells stimulated with anti-CD3 antibody alone (Biological Example 2); assay type: cell-based, human; settings: T-cell, read-out: IL-2 secretion Anti-CD3 stimulation; for fold induction at 1 µM: 1 μM Cbl-b inhibitor
T-cell [4] = assay: CD25 cell surface staining on T-cells co-stimulated with anti-CD3 and anti-CD28 antibody (Biological Example 2); assay type: cell-based, human; settings: Homo sapiens, T-cell, read-out: CD25 staining Anti-CD3/Anti-CD28 stimulation; for fold induction at 0.3 µM: 0.3 μM Cbl-b inhibitor; for fold induction at 1 µM: 1 μM Cbl-b inhibitor
How it was run: as §1

T-cell [5] = assay: CD25 cell surface staining on T-cells stimulated with anti-CD3 antibody alone (Biological Example 2); assay type: cell-based, human; settings: T-cell, read-out: CD25 staining Anti-CD3 stimulation; for fold induction at 1 µM: 1 μM Cbl-b inhibitor
Cbl-b [6] = molecular target: T1, Cbl-b; assay: Cbl-b activity assay (Cbl-b inhibition assay), TR-FRET of Cbl-b interaction with UbcH5B-Ub; assay type: biochemical; settings: assay buffer with 100 mM NaCl, 60 nM Src kinase; read-out: Cbl-b activity IC50
How it was run: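 TR-FRET readout of Cbl-b binding to Bodipy-fluorescein N-terminally labeled Ub conjugated to UbcH5B C85K, measured with compound present. After compound incubation, 60 nM Src kinase with 1 mM ATP and 5 mM MgCl2 (final) was added for 1.5 h, then a further 1 h incubation; asterisked values used 50 mM NaCl buffer and 30 nM Src.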

[7] = fold change over baseline (anti-CD3/anti-CD28 stimulated T-cells without inhibitor)
[8] = Homo sapiens, fold change over baseline (anti-CD3/anti-CD28 stimulated T-cells without inhibitor)
[9] = fold change over baseline, primary human total T-cells
[10] = fold change over baseline, 4 μM Cbl-b inhibitor, primary human total T-cells
[11] = fold change over baseline, 8 μM Cbl-b inhibitor, primary human total T-cells

T1 sequence (Q13191 36-427): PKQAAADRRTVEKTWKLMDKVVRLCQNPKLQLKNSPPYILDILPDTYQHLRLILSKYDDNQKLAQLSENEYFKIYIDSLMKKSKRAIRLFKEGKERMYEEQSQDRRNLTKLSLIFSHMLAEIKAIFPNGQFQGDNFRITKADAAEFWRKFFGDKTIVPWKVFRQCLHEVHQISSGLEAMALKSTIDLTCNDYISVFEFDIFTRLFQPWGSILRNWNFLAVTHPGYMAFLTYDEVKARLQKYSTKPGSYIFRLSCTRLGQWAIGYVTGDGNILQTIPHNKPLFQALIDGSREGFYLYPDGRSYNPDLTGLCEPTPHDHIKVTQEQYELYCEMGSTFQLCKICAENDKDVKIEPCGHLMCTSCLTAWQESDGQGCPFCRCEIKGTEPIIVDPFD

SMILES: CC(c1cc2c(c(C3CC3)n1)CN(c1cccc(C3(Cc4nncn4C)COC3)c1)C2=O)N1CCC2(CC2)C1 (stereo not shown) [Example 585, 6-(1-(5-Azaspiro[2.4]heptan-5-yl)ethyl)-4-cyclopropyl-2-(3-(3-((4-methyl-4H-1,2,4-triazol-3-yl)methyl)oxetan-3-yl)phenyl)-2,3-dihydro-1H-pyrrolo[3,4-c]pyridin-1-one]
- IC50 (Cbl-b [1]): ≤ 100 nM
- fold induction at 0.3 µM (T-cell [2]; [7]): 2.51 to 5
- fold induction at 1 µM (T-cell [2]; [7]): 5 to 7.5
- fold induction at 1 µM (T-cell [3]; [8]): 0.051 to 0.1
- fold induction at 0.3 µM (T-cell [4]; [7]): 1.01 to 1.3
- fold induction at 1 µM (T-cell [4]; [7]): 1.01 to 1.3
- fold induction at 1 µM (T-cell [5]; [8]): 0.801 to 1
- IC50 (Cbl-b [6]): < 100 nM

SMILES: Cn1cnnc1CC1(c2cccc(N3Cc4c(cc(N5CC(C(F)(F)F)C5)cc4C(F)(F)F)C3=O)c2)COC1 [Example 600, 2-(3-(3-((4-methyl-4H-1,2,4-triazol-3-yl)methyl)oxetan-3-yl)phenyl)-4-(trifluoromethyl)-6-(3-(trifluoromethyl)azetidin-1-yl)isoindolin-1-one]
- IC50 (Cbl-b [1]): ≤ 100 nM
- fold induction at 0.3 µM (T-cell [2]; [7]): 2.51 to 5
- fold induction at 1 µM (T-cell [2]; [7]): > 7.5
- fold induction at 1 µM (T-cell [3]; [8]): 0.051 to 0.1
- fold induction at 0.3 µM (T-cell [4]; [7]): 1.01 to 1.3
- fold induction at 1 µM (T-cell [4]; [7]): 1.01 to 1.3
- fold induction at 1 µM (T-cell [5]; [8]): > 1
- IC50 (Cbl-b [6]): < 100 nM

SMILES: CC1CN(c2cc3c(c(C(F)(F)F)c2)CN(c2cccc(C4(Cc5nncn5C)COC4)c2)C3=O)C1C (stereo not shown) [Example 608, 6-(2,3-dimethylazetidin-1-yl)-2-(3-(3-((4-methyl-4H-1,2,4-triazol-3-yl)methyl)oxetan-3-yl)phenyl)-4-(trifluoromethyl)isoindolin-1-one]
- IC50 (Cbl-b [1]): ≤ 100 nM
- fold induction at 0.3 µM (T-cell [2]; [7]): 1.01 to 2.5
- fold induction at 1 µM (T-cell [2]; [7]): 2.51 to 5
- fold induction at 1 µM (T-cell [3]; [8]): 0.051 to 0.1
- fold induction at 0.3 µM (T-cell [4]; [7]): 1.01 to 1.3
- fold induction at 1 µM (T-cell [4]; [7]): 1.01 to 1.3
- fold induction at 1 µM (T-cell [5]; [8]): 0.601 to 0.8
- IC50 (Cbl-b [6]): < 100 nM

SMILES: Cc1cc(C(=O)Nc2cccc([C@H]3C[C@H]3c3nncn3C)c2)nc(C2CC2)n1 [Compound 333, 2-cyclopropyl-6-methyl-N-{3-[(1 S,2R)-2-(4-methyl-1,2,4-triazol-3-yl)cyclopropyl]phenyl}pyrimidine-4-carboxamide]
- IC50 (Cbl-b [1]): ≤ 300 nM
- fold induction at 0.3 µM (T-cell [2]; [9]): 1.01 to 2.5
- fold induction at 1 µM (T-cell [2]; [9]): 2.51 to 5
- fold induction at 4 µM (T-cell [2]; [10]): 5 to 7.5
- fold induction at 1 µM (T-cell [3]; [9]): 0.101 to 0.15
- fold induction at 8 µM (T-cell [3]; [11]): > 0.201
- fold induction at 0.3 µM (T-cell [4]; [9]): 1.01 to 1.3
- fold induction at 1 µM (T-cell [4]; [9]): 1.01 to 1.3
- fold induction at 4 µM (T-cell [4]; [10]): 1.01 to 1.3
- fold induction at 1 µM (T-cell [5]; [9]): 0.801 to 1
- fold induction at 8 µM (T-cell [5]; [11]): > 1
- IC50 (Cbl-b [6]): 100 to 300 nM

SMILES: Cn1cnnc1CC1(c2cccc(N3Cc4c(cc(CN5CCC6CC6C5)cc4C(F)(F)F)C3=O)c2)COC1 (stereo not shown) [Example 646, 6-((3-azabicyclo[4.1.0]heptan-3-yl)methyl)-2-(3-(3-((4-methyl-4H-1,2,4-triazol-3-yl)methyl)oxetan-3-yl)phenyl)-4-(trifluoromethyl)isoindolin-1-one]
- IC50 (Cbl-b [1]): ≤ 100 nM
- fold induction at 0.3 µM (T-cell [2]; [7]): > 7.5
- fold induction at 1 µM (T-cell [2]; [7]): > 7.5
- fold induction at 1 µM (T-cell [3]; [8]): > 0.201
- fold induction at 0.3 µM (T-cell [4]; [7]): 1.31 to 1.5
- fold induction at 1 µM (T-cell [4]; [7]): 1.31 to 1.5
- fold induction at 1 µM (T-cell [5]; [8]): > 1
- IC50 (Cbl-b [6]): < 100 nM

SMILES: Cn1cnnc1CC1(c2cccc(NC(=O)c3cc(N4CC(C(F)F)C4)nc(C4CC4)n3)c2)COC1 [Example 610, 2-cyclopropyl-6-(3-(difluoromethyl)azetidin-1-yl)-N-(3-(3-((4-methyl-4H-1,2,4-triazol-3-yl)methyl)oxetan-3-yl)phenyl)pyrimidine-4-carboxamide]
- IC50 (Cbl-b [1]): ≤ 100 nM
- fold induction at 0.3 µM (T-cell [2]; [7]): 2.51 to 5
- fold induction at 1 µM (T-cell [2]; [7]): > 7.5
- fold induction at 1 µM (T-cell [3]; [8]): 0.101 to 0.15
- fold induction at 0.3 µM (T-cell [4]; [7]): 1.01 to 1.3
- fold induction at 1 µM (T-cell [4]; [7]): 1.01 to 1.3
- fold induction at 1 µM (T-cell [5]; [8]): 0.801 to 1
- IC50 (Cbl-b [6]): < 100 nM

SMILES: Cc1cc2c(c(C3CC3)n1)CN(c1cccc(C3(C(F)(F)c4nncn4C)COC3)c1)C2=O [Example 677, 4-cyclopropyl-2-(3-(3-(difluoro(4-methyl-4H-1,2,4-triazol-3-yl)methyl)oxetan-3-yl)phenyl)-6-methyl-2,3-dihydro-1H-pyrrolo[3,4-c]pyridin-1-one]
- IC50 (Cbl-b [1]): ≤ 1000 nM
- fold induction at 0.3 µM (T-cell [2]; [7]): 1.01 to 2.5
- fold induction at 1 µM (T-cell [2]; [7]): 1.01 to 2.5
- fold induction at 1 µM (T-cell [3]; [8]): 0.051 to 0.1
- fold induction at 0.3 µM (T-cell [4]; [7]): 1.01 to 1.3
- fold induction at 1 µM (T-cell [4]; [7]): 1.01 to 1.3
- fold induction at 1 µM (T-cell [5]; [8]): 0.601 to 0.8
- IC50 (Cbl-b [6]): 301 to 1000 nM

SMILES: Cn1cnnc1CC1(c2cccc(N3Cc4c(cc(N5CC(C(F)F)C5)cc4C(F)(F)F)C3=O)c2)COC1 [Example 594, 6-(3-(Difluoromethyl)azetidin-1-yl)-2-(3-(3-((4-methyl-4H-1,2,4-triazol-3-yl)methyl)oxetan-3-yl)phenyl)-4-(trifluoromethyl)isoindolin-1-one]
- IC50 (Cbl-b [1]): ≤ 100 nM
- fold induction at 0.3 µM (T-cell [2]; [7]): 2.51 to 5
- fold induction at 1 µM (T-cell [2]; [7]): 5 to 7.5
- fold induction at 1 µM (T-cell [3]; [8]): 0.051 to 0.1
- fold induction at 0.3 µM (T-cell [4]; [7]): 1.01 to 1.3
- fold induction at 1 µM (T-cell [4]; [7]): 1.01 to 1.3
- fold induction at 1 µM (T-cell [5]; [8]): 0.801 to 1
- IC50 (Cbl-b [6]): < 100 nM

SMILES: Cn1cnnc1CC1(c2cccc(N3Cc4c(cc(CN5CCC(F)(F)CC5)cc4C(F)(F)F)C3=O)c2)COC1 [Example 633, 6-((4,4-difluoropiperidin-1-yl)methyl)-2-(3-(3-((4-methyl-4H-1,2,4-triazol-3-yl)methyl)oxetan-3-yl)phenyl)-4-(trifluoromethyl)isoindolin-1-one]
- IC50 (Cbl-b [1]): ≤ 100 nM
- fold induction at 0.3 µM (T-cell [2]; [7]): > 7.5
- fold induction at 1 µM (T-cell [2]; [7]): > 7.5
- fold induction at 1 µM (T-cell [3]; [8]): > 0.201
- fold induction at 0.3 µM (T-cell [4]; [7]): 1.31 to 1.5
- fold induction at 1 µM (T-cell [4]; [7]): 1.31 to 1.5
- fold induction at 1 µM (T-cell [5]; [8]): > 1
- IC50 (Cbl-b [6]): < 100 nM

SMILES: CN1CC2CC(C1)N2c1cc(C(=O)Nc2cccc(C3(Cc4nncn4C)COC3)c2)nc(C2CC2)n1 [Example 572, 2-Cyclopropyl-N-(3-(3-((4-methyl-4H-1,2,4-triazol-3-yl)methyl)oxetan-3-yl)phenyl)-6-(3-methyl-3,6-diazabicyclo[3.1.1]heptan-6-yl)pyrimidine-4-carboxamide]
- IC50 (Cbl-b [1]): ≤ 100 nM
- fold induction at 0.3 µM (T-cell [2]; [7]): > 7.5
- fold induction at 1 µM (T-cell [2]; [7]): > 7.5
- fold induction at 1 µM (T-cell [3]; [8]): > 0.201
- fold induction at 0.3 µM (T-cell [4]; [7]): 1.31 to 1.5
- fold induction at 1 µM (T-cell [4]; [7]): 1.31 to 1.5
- fold induction at 1 µM (T-cell [5]; [8]): > 1
- IC50 (Cbl-b [6]): < 100 nM

SMILES: CC1CCN(Cc2cc3c(c(C(F)(F)F)c2)CN(c2cccc(C4(Cc5nncn5C)COC4)c2)C3=O)CC1(F)F (stereo not shown) [Example 635, 6-((3,3-difluoro-4-methylpiperidin-1-yl)methyl)-2-(3-(3-((4-methyl-4H-1,2,4-triazol-3-yl)methyl)oxetan-3-yl)phenyl)-4-(trifluoromethyl)isoindolin-1-one]
- IC50 (Cbl-b [1]): ≤ 100 nM
- fold induction at 0.3 µM (T-cell [2]; [7]): > 7.5
- fold induction at 1 µM (T-cell [2]; [7]): > 7.5
- fold induction at 1 µM (T-cell [3]; [8]): > 0.201
- fold induction at 0.3 µM (T-cell [4]; [7]): 1.31 to 1.5
- fold induction at 1 µM (T-cell [4]; [7]): 1.31 to 1.5
- fold induction at 1 µM (T-cell [5]; [8]): > 1
- IC50 (Cbl-b [6]): < 100 nM

SMILES: Cn1cnnc1CC1(c2cccc(N3Cc4c(cc(N5CCOC5=O)cc4C(F)(F)F)C3=O)c2)COC1 [Example 561, 3-(2-(3-(3-((4-Methyl-4H-1,2,4-triazol-3-yl)methyl)oxetan-3-yl)phenyl)-3-oxo-7-(trifluoromethyl)isoindolin-5-yl)oxazolidin-2-one]
- IC50 (Cbl-b [1]): ≤ 100 nM
- fold induction at 0.3 µM (T-cell [2]; [7]): 1.01 to 2.5
- fold induction at 1 µM (T-cell [2]; [7]): 2.51 to 5
- fold induction at 1 µM (T-cell [3]; [8]): < 0.05
- fold induction at 0.3 µM (T-cell [4]; [7]): 1.01 to 1.3
- fold induction at 1 µM (T-cell [4]; [7]): 1.01 to 1.3
- fold induction at 1 µM (T-cell [5]; [8]): 0.601 to 0.8
- IC50 (Cbl-b [6]): < 100 nM
